Values joined by “and” are separate entries in the source; they are usually repeats but may differ in a detail not shown here. Equal entries are not always repeated.
Key:
Fes = biological target: T1, Fes (Homo sapiens, UniProt P07332); assay: PamChip tyrosine kinase microarray, Fes; type: biochemical; conditions: 4e 0.1 µM, HL60 lysate
T1 construct: endogenous in cells; host or cells: HL60 lysate
Description: (§1) The changes in kinase activities induced by treatment with 4e were monitored within the HL60 cell lines using PamGene’s (Hertogenbosch, Netherlands) PamChip® peptide microarray profiler, which quantifies the activities of 144 tyrosine kinases (YK) ([29], [30]) (Figure 7). Results are provided as a log fold change (LFC) heatmap and Mean Kinase Statistic. From the LFC it is apparent that compound 4e, at a concentration of 0.1 µM, induced sizable changes to the activity of several kinases within the cell signaling YK profile (Figure 7A).
(§2) An Upstream Kinase tool was used to generate a putative list of kinases responsible for phosphorylating the phospho-sites on the PamChip (Figure 7B) ([31]). It is an interpretation and is highly dependent on the contents of the underlying phosphorylation databases. A Kinase Score was used for ranking kinases based on their significance and specificity in terms of the set of peptides used for the corresponding kinase. Kinase Statistics indicates the overall change of the peptide set that represents the kinase. Kinase statistics value <0 indicates lower kinase activity in the compound spiked lysate and vice versa ([32], [33]). Table 5 lists the 20 most changed kinases within treated HL60 cell lysates by 0.1 μM 4e, ranked according to their Kinase Score.
(§3) The compound 4e was spiked into HL60 cell lysate at different concentrations (0.001, 0.01, 0.1, 1, 10 and 50 μM). In addition, DMSO was also spiked in HL60 lysate at low concentration (2% v/v) as control. Samples were profiled on PamGene’s Tyrosine Kinase (PTK) arrays in technical replicates, covering a total of 196 phosphorylation sites. Frozen HL60 cultured cell pellet was sent to PamGene. At PamGene, cells were lysed using a lysis buffer and proteases inhibitors cocktail. Protein concentration was measured using standard Bradford assay as per PamGene SOPs. These lysates were further used for generating the PTK activity profiles. For spiking, 4e was received as powder form and dissolved in DMSO at PamGene facility followed by storing at -20°C in small aliquots. PamGene used its in-house bioinformatics toolbox in combination with other methods to generate hypotheses of signaling pathways.

Ros = biological target: T2, Ros (Homo sapiens, UniProt P08922); assay: PamChip tyrosine kinase microarray, Ros; type: biochemical; conditions: 4e 0.1 µM, HL60 lysate
T2 construct: endogenous in cells; host or cells: HL60 lysate
Description: as §1, §2, §3

Fgr = biological target: T3, Fgr (Homo sapiens, UniProt P09769); assay: PamChip tyrosine kinase microarray, Fgr; type: biochemical; conditions: 4e 0.1 µM
T3 construct: endogenous in cells; host or cells: HL60 lysate
Description: as §1, §2, §3

Yes = assay: PamChip tyrosine kinase microarray, Yes; type: biochemical, human; conditions: 4e 0.1 µM, HL60 lysate
Description: as §1, §2
The two multiple-kinase tests (PamChip and Phosphokinase Profiler) provided strong evidence of very minor involvement of Src in the cellular activities of 4e. However, the question must be raised about the effect of the 4e on other SRC family kinase (SFK). To address this point, we must highlight that both R&D phosphokinase profiler and PamChip feature Yes, Fgr, Lyn, Lck and Src while Fyn, Hck, Blk and Frk activities are tested in the PamChip only. The signals of SFKs in the R&D Phosphokinase Profiler were too weak to detect in both untreated (control) and 4e-treated HL60 cells. In PamChip assay, most of SFK’s were not ranked in the top 20 affected kinases (Table 5). In addition, their Specificity Score were very low (Table 6) indicating their marginal importance to the cell killing activities of 4e. Fgr kinase which ranked 7th in the list (Table 5) was the only SFK member that seems to be affected by the compound, albeit with low Specificity Score (1.03).
The compound 4e was spiked into HL60 cell lysate at different concentrations (0.001, 0.01, 0.1, 1, 10 and 50 μM). In addition, DMSO was also spiked in HL60 lysate at low concentration (2% v/v) as control. Samples were profiled on PamGene’s Tyrosine Kinase (PTK) arrays in technical replicates, covering a total of 196 phosphorylation sites. Frozen HL60 cultured cell pellet was sent to PamGene. […] Protein concentration was measured using standard Bradford assay as per PamGene SOPs. […]

EphA2 = biological target: T4, EphA2 (Homo sapiens, UniProt P29317); assay: PamChip tyrosine kinase microarray, EphA2; type: biochemical; conditions: 4e 0.1 µM, HL60 lysate
T4 construct: endogenous in cells; host or cells: HL60 lysate
Description: as §1, §2, §3

EphA3 = biological target: T5, EphA3 (Homo sapiens, UniProt P29320); assay: PamChip tyrosine kinase microarray, EphA3; type: biochemical; conditions: 4e 0.1 µM, HL60 lysate
T5 construct: endogenous in cells; host or cells: HL60 lysate
T5 sequence (P29320 21-983): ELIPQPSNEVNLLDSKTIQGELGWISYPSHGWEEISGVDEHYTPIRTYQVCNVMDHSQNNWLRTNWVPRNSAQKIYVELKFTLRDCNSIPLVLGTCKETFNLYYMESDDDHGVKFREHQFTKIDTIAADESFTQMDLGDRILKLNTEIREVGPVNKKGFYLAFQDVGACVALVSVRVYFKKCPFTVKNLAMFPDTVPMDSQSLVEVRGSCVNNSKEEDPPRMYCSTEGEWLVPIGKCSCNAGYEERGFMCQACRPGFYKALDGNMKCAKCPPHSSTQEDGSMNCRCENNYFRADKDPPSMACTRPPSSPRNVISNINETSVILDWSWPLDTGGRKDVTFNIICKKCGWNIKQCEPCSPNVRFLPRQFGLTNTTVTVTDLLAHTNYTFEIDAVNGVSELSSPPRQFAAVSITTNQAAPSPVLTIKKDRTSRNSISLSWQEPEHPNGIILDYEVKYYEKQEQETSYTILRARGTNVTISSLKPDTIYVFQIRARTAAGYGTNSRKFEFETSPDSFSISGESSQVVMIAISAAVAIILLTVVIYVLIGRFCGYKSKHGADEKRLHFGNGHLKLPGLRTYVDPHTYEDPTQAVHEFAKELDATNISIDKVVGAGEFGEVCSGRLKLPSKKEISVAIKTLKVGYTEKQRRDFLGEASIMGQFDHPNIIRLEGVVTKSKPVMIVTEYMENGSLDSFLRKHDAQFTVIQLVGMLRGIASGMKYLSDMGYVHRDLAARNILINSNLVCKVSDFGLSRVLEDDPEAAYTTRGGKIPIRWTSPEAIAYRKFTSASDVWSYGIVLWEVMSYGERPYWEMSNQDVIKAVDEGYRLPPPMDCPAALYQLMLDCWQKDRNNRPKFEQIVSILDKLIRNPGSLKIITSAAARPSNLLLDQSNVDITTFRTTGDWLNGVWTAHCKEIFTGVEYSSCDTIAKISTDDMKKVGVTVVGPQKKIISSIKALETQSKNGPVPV
Description: as §1, §2, §3

Tyk2 = assay: PamChip tyrosine kinase microarray, Tyk2; type: biochemical, human; conditions: 4e 0.1 µM, HL60 lysate
Description: as §1, §2, §3

Ron = assay: PamChip tyrosine kinase microarray, Ron; type: biochemical, human; conditions: 4e 0.1 µM, HL60 lysate
Description: as §1, §2, §3

T1 sequence (P07332 whole entry): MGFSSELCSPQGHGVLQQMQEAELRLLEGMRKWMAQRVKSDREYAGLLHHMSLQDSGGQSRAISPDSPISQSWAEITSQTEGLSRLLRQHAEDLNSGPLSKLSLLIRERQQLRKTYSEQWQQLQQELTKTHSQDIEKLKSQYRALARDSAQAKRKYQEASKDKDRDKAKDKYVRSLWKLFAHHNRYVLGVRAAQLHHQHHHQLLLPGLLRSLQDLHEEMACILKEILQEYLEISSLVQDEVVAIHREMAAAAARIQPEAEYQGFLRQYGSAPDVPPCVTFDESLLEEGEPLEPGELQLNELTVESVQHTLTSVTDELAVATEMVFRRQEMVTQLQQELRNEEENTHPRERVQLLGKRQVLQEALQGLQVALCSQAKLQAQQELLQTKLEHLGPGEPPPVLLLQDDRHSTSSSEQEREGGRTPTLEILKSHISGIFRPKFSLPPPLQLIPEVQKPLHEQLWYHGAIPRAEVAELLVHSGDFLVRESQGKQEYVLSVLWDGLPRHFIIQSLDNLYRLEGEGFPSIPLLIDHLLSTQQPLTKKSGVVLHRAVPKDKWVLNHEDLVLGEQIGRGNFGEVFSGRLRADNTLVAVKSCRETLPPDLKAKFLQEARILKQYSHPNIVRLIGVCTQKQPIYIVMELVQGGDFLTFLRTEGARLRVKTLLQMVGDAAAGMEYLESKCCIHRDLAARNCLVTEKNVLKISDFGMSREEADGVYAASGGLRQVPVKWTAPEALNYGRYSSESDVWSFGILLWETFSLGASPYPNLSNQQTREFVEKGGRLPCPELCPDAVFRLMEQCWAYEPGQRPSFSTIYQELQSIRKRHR
T4 sequence (P29317 24-976): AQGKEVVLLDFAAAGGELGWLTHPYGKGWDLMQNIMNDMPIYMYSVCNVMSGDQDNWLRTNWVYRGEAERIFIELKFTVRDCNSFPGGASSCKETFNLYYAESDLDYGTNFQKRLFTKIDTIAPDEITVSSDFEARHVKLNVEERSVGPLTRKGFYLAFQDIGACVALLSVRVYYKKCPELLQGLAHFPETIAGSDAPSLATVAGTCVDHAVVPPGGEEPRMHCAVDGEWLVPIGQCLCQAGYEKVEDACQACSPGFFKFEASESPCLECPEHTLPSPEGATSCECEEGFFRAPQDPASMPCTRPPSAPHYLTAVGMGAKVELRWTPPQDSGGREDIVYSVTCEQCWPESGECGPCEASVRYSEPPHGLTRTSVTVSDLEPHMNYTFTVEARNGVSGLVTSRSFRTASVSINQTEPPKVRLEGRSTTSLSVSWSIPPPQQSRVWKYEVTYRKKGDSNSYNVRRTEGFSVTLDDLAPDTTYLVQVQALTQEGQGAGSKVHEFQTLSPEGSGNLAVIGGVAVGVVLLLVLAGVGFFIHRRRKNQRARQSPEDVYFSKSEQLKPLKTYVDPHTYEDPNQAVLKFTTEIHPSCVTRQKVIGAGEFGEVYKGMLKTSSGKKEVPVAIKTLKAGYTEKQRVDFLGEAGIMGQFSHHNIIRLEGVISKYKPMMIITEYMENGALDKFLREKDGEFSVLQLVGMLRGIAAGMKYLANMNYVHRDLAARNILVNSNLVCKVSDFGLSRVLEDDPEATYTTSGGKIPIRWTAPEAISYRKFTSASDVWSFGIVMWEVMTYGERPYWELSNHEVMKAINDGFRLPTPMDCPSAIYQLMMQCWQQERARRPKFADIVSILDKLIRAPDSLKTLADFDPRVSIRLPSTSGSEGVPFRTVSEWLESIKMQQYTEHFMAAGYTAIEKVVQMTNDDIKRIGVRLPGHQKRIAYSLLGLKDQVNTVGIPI
T3 sequence (P09769 whole entry): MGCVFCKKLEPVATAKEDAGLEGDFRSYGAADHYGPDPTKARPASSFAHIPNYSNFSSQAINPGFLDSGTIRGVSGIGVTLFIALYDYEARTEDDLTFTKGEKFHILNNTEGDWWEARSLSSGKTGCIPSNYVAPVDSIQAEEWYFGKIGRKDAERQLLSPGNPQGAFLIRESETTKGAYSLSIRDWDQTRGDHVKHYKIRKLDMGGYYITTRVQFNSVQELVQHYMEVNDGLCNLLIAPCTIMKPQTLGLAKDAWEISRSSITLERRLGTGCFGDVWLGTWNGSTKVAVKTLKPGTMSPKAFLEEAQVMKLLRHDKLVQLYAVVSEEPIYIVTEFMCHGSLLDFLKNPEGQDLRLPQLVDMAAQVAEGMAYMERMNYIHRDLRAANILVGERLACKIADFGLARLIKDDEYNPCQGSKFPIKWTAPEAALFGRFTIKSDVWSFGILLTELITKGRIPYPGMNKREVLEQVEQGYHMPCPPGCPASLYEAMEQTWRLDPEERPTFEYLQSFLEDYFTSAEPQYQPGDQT
T2 sequence (P08922 28-2347): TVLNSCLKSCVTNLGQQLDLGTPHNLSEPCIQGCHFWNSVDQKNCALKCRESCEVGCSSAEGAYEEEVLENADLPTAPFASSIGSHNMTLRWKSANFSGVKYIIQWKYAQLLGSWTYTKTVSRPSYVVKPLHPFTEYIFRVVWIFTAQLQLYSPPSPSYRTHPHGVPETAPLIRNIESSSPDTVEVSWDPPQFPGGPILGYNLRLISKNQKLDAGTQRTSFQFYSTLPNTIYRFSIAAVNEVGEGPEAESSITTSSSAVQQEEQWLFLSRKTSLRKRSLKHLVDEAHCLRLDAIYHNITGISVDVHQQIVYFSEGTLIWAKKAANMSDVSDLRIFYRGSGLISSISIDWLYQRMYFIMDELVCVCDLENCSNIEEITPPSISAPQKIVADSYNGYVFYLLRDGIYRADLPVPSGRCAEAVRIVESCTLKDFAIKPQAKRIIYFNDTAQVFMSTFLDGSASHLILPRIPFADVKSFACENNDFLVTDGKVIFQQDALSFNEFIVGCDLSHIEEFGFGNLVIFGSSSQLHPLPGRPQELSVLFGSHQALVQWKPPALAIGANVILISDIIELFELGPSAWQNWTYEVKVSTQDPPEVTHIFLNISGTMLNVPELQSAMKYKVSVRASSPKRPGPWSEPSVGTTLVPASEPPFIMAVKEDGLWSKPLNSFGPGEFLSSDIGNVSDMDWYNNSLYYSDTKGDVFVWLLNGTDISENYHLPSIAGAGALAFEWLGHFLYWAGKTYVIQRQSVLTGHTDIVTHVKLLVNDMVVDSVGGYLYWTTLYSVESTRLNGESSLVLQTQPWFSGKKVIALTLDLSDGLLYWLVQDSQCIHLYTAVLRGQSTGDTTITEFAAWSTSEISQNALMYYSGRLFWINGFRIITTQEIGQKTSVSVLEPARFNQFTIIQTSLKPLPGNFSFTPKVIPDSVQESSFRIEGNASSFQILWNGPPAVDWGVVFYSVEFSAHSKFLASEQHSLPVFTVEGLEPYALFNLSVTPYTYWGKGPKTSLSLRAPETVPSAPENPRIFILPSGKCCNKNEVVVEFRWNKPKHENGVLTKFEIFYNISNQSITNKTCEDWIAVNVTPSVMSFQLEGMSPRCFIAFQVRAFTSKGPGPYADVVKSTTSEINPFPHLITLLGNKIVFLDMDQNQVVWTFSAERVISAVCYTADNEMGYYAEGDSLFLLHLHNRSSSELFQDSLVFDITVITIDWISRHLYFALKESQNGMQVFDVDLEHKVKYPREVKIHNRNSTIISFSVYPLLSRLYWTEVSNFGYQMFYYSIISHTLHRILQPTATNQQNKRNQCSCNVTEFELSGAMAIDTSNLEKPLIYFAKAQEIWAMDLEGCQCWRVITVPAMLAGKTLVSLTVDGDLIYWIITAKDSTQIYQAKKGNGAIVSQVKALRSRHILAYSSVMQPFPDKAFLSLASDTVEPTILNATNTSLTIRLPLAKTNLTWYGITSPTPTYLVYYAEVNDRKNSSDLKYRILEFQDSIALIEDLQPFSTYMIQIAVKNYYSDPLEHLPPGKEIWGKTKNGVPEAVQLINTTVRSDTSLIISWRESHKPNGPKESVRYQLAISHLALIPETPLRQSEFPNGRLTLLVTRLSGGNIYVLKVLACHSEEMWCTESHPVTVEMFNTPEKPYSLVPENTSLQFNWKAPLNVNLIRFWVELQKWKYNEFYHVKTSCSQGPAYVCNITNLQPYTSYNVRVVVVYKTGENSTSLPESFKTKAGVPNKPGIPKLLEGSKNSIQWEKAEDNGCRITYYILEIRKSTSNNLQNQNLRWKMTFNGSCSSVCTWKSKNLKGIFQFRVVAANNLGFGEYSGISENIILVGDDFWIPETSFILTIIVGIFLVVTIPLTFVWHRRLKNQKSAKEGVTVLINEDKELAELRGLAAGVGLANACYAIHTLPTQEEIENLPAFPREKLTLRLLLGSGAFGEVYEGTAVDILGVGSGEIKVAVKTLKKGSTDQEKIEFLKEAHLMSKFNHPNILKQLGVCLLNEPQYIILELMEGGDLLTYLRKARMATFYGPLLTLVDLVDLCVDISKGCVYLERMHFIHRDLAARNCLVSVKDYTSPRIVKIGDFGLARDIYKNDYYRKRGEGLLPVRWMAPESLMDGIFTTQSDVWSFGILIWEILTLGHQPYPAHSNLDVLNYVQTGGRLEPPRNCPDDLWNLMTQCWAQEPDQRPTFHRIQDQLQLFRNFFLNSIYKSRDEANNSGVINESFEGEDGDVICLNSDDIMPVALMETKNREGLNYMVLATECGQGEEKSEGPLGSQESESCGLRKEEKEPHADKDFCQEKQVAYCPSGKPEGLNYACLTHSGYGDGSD

SMILES: O=C(Cc1ccc(NC(=O)c2cccc(Cl)c2)cc1)NCc1ccccc1 [Compound 4e, N-(4-(2-(benzylamino)-2-oxoethyl)phenyl)-3-chlorobenzamide]
- Mean Final Score (Fes): 2.3241
- Mean Kinase Statistic (Fes): -0.6958
- Mean Significance Score (Fes): 1.2140
- Mean Specificity Score (Fes): 1.1101
- Mean Final Score (Ros): 2.0991
- Mean Kinase Statistic (Ros): -0.9704
- Mean Significance Score (Ros): 0.9578
- Mean Specificity Score (Ros): 1.1413
- PamGene Ranking (Fgr; HL60): 7
- Mean Final Score (Fgr; HL60 lysate): 2.2023
- Mean Kinase Statistic (Fgr; HL60 lysate): -0.7971
- Mean Significance Score (Fgr; HL60 lysate): 1.1688
- Mean Specificity Score (Fgr; HL60 lysate): 1.03 and 1.0335
- Mean Final Score (Yes): 1.1516
- Mean Kinase Statistic (Yes): -0.4139
- Mean Significance Score (Yes): 1.0126
- Mean Specificity Score (Yes): 0.1390
- Mean Final Score (EphA2): 2.4004
- Mean Kinase Statistic (EphA2): -0.7066
- Mean Significance Score (EphA2): 1.5807
- Mean Specificity Score (EphA2): 0.8197
- Mean Final Score (EphA3): 1.9564
- Mean Kinase Statistic (EphA3): -0.6074
- Mean Significance Score (EphA3): 1.4547
- Mean Specificity Score (EphA3): 0.5017
- Mean Final Score (Tyk2): 1.7035
- Mean Kinase Statistic (Tyk2): -0.6710
- Mean Significance Score (Tyk2): 1.1411
- Mean Specificity Score (Tyk2): 0.5624
- Mean Final Score (Ron): 1.8398
- Mean Kinase Statistic (Ron): -0.6967
- Mean Significance Score (Ron): 1.0254
- Mean Specificity Score (Ron): 0.8144
